Columns and labels:
[1] = 3D angiographic MRI colonography in healthy volunteers after intravenous injection; format: in vivo, human
Description: Description of method of acquisition of MRI images of the luminal part of the colon using the three-dimensional angiography technique in healthy volunteers after intravenous injection of MultiHance™ (Gd-BOPTA meglumine salt).
A three-dimensional angiographic imaging technique was used because it provides advantageous visualisation of large regions of the anatomy, especially when associated with administration of contrast agents which are particularly effective in reducing the T1 relaxation times in standard MRI investigations.
In the trial conducted, the increased contrast in the hepatobiliary system and the gastrointestinal system was obtained with this kind of diagnostic technique, which produced up to 42 images of a three-dimensional volume measuring 40×32×12 cm in a single breath-hold.
(§1) The trial was conducted in six healthy volunteers aged between 22 and 29 years. The contrast agent used was Gd-BOPTA meglumine salt (MultiHance™), administered intravenously at a dose of 0.1 mmol/kg of body weight. The successive recording of images of the abdomen was performed 1, 12, 24, 36, 48, 70 and 105 hours after administration of the agent using the following 3D angio-sequence: 3D FLASH; TR 4.6 ms; TE 1.8 ms; α 50° C.; rect. FOV 390 mm (6/8); Ma: 215×512; acq 28 s; slab thickness 120 mm; 42 sections. Three volunteers were re-tested 14 days after administration of the agent.
(§2) T1-weighted axial images of the liver and abdomen were recorded in addition to the 3D angio-sequences referred to above.
(§3) The visualisation procedure was conducted with an MRI scanner operating at 1.5 Tesla (Magneton Vision Plus, Siemens Medical Systems, Erlangen, Germany) equipped with a phased array body coil.
The images were processed with standard MIP software on a dedicated 3D MR workstation (Virtuoso, Siemens Medical System).
No preparation, medication or joint administration of other drugs or other contrast media was performed on the volunteers studied.

[2] = MRI signal intensity over time in liver parenchyma, healthy volunteers; format: in vivo, human; conditions: average of six healthy volunteers, 0.1 mmol/kg i.v., FIG. 1
Method: as §1, §2, §3
(§4) Before performing colonography, it was possible to investigate liver function by recording the signal intensity in the liver parenchyma and gall bladder in the first few hours after administration of the contrast agent. […] This seems to be the ideal period for recording three-dimensional MRI colonography.

[3] = MRI signal intensity over time in gall bladder, healthy volunteers; format: in vivo, human
Method: as §1, §2, §3, §4

[4] = in man; cited from earlier work
[5] = cited from earlier work

time for signal intensity to be halved in liver parenchyma [2]: ≤ 10 h
half-life of signal intensity in gall bladder ([3]; average of six healthy volunteers, 0.1 mmol/kg i.v., FIG. 1): 15 h
SMILES: CNC[C@H](O)[C@@H](O)[C@H](O)[C@H](O)CO.CNC[C@H](O)[C@@H](O)[C@H](O)[C@H](O)CO.O=C([O-])CN(CCN(CC(=O)[O-])CC(=O)O)CCN(CC(=O)O)C(COCc1ccccc1)C(=O)[O-].[Gd+3] (centres unmarked) [MultiHance, gadobenate dimeglumine]
time after which a partial increase of intraluminal signal was still detectable ([1]; 0.1 mmol/kg i.v.): 8 days
homogeneity of contrast in the lumen ([1]; 0.1 mmol/kg i.v., faeces present, no preparation): homogenous contrast in the lumen
signal in the colon, 3D MR colonography ([1]; 24 hours after injection of 0.1 mmol/kg BW, no bowel preparation, FIG. 2): Homogenous signal can be seen in all segments of the colon
time to intense increase in intraluminal contrast after administration ([1]; all six healthy volunteers, 0.1 mmol/kg i.v., no bowel preparation): ≤ 24 h
time after administration at which an intense intraluminal signal was still detected in the colon ([1]; in some patients, 0.1 mmol/kg i.v.): ≤ 100 h
intraluminal contrast after intravenous administration ([1]; intravenous administration, contrast recorded in the colon): substantial increase in intraluminal contrast
enhancement within the gallbladder ([3]; 24 hours after injection of 0.1 mmol/kg BW, FIG. 2): still intense enhancement
proportion excreted by the biliary route [4]: 2-4%
solubility in water [5]: soluble in water

— US20030113267A1, “Colon contrast enhanced imaging” (priority 1999, published 2003)
